Patent US11021481B2, “Substituted isoindolin-1-ones and 2,3-dihydro-1h-pyrrolo[3,4-c]pyridin-1-ones as HPK1 antagonists” (Nimbus Saturn, Inc., priority 2019, dated 2021)

target: HPK1 (Homo sapiens (Human), UniProt Q92918); test: HPK1 biochemical enzyme assay (microfluidic mobility shift assay); details: 1.5 nM HPK1, ATP 1 mM final, 30 min preincubation, 60 min at RT, Caliper EZ Reader; read-out: HPK1 1000UMATP caliper IC50
Procedure, shortened: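 Ten-point compound titrations (top 3 μM final) preincubated 30 min with HPK1 and substrate, then reaction started with 1 mM ATP and 1 μM substrate, 5 mM MgCl2. After 60 min at RT, reaction terminated and product measured by microfluidic mobility shift.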

Sequence of HPK1 (Q92918 whole entry): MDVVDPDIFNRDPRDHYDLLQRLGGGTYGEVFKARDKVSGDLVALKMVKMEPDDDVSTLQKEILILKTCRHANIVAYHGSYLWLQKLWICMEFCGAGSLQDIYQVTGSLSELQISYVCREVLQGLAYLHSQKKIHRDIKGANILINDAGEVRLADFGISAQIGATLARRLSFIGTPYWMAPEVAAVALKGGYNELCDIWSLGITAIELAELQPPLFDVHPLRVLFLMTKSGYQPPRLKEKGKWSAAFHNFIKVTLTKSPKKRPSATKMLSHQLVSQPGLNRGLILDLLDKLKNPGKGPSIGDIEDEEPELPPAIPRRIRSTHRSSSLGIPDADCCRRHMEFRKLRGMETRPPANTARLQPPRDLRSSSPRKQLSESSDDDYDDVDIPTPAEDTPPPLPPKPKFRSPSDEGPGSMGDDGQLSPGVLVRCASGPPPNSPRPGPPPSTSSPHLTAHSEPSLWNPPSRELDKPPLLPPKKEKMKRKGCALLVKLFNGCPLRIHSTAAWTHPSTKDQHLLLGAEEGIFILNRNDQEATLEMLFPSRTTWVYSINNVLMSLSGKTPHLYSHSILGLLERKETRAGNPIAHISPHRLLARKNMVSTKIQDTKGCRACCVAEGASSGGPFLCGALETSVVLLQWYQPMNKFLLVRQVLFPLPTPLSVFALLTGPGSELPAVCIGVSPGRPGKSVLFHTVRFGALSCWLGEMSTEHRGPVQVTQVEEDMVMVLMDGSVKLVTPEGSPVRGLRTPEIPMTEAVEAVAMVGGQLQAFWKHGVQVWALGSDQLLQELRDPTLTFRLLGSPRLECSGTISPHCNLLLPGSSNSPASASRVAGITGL

Row | IC50 [nM] | Compound
1 | < 100 | Cc1ccn2c(-c3ccc(Nc4ccc(N5CCC[C@H](O)C5)cn4)c4c3CNC4=O)cnc2c1 [I-170, 7-[[5-[(3S)-3-hydroxy-1-piperidyl]-2-pyridyl]amino]-4-(7-methylimidazo [1,2-a]pyridin-3-yl)isoindolin-1-one]
2 | < 100 | Cn1ccc2c(-c3ncc(Nc4ccc(N5CCC[C@@H](C(C)(C)O)C5)cn4)c4c3CNC4=O)ccnc21 [I-212, 7-[[5-[(3R)-3-(1-hydroxy-1-methyl-ethyl)-1-piperidyl]-2-pyridyl]amino]-4-(1-methylpyrrolo [2,3-b]pyridin-4-yl)-2,3-dihydropyrrolo [3,4-c]pyridin-1-one]
3 | < 100 | CN1CCN(CC2(O)CCN(c3ccc(Nc4ccc(-c5cnc6cc(Cl)ccn56)c5c4C(=O)NC5)nc3)CC2)CC1 [I-437, 4-(7-chloroimidazo [1,2-a]pyridin-3-yl)-7-((5-(4-hydroxy-4-((4-methylpiperazin-1-yl)methyl)piper-idin-1-yl)pyridin-2-yl)amino)isoin-dolin-1-one]
4 | < 100 | Cc1cccc2c(-c3ccc(Nc4ccc([C@@H]5CCOC5)c(CN(C)C)n4)c4c3CNC4=O)cnn12 [I-709, (S)-7-((6-((dimethylamino)-methyl)-5-(tetrahydrofuran-3-yl)pyridin-2-yl)amino)-4-(7-methylpyrazolo[1,5-a]pyridin-3-yl)isoindolin-1-one]
5 | < 100 | O=C1NCc2c(-c3cnc4cc(C(F)F)ccn34)ccc(Nc3ccc(C4(O)CCOCC4)cn3)c21 [I-608, 4-(7-(difluoromethyl)-imidazo[1,2-a]pyridin-3-yl)-7-((5-(4-hydroxytetra-hydro-2H-pyran-4-yl)pyridin-2-yl)amino)isoin-dolin-1-one]
6 | < 100 | Cc1cn(C)c2nccc(-c3ccc(Nc4ccc(N5CCNCC5)cn4)c4c3CNC4=O)c12 [I-98]
7 | < 100 | C[C@@H](O)[C@H]1CCCN(c2ccc(Nc3ccc(-c4cnc5cc(F)ccn45)c4c3C(=O)NC4)nc2)C1 (stereo in doubt) [I-364, 4-(7-fluoroimidazo [1,2-a]pyridin-3-yl)-7-((5-((R)-3-((S)-1-hydroxyethyl)piperidin-1-yl)pyridin-2-yl)amino)isoin-dolin-1-one]
8 | < 100 | Cc1ccn2c(-c3ccc(Nc4ccc(N5CCN(C)CC5)cn4)c4c3CNC4=O)cnc2c1 [I-64, 4-(7-methylimidazo [1,2-a]pyridin-3-yl)-7-[[5-(4-methylpiperazin-1-yl)-2-pyridyl]amino] isoindolin-1-one]
9 | < 100 | O=C1NCc2c(-c3cnc4cc(F)ccn34)ccc(Nc3ccc(N4CCC[C@@H](O)C4)cn3)c21 [I-174, 4-(7-fluoroimidazo [1,2-a]pyridin-3-yl)-7-[[5-[(3R)-3-hydroxy-1-piperipyl]-2-pyripyl]amino] isoindolin-1-one]
10 | < 100 | O=C1NCc2c(-c3cnc4n3CCCC4)ccc(Nc3ccc(N4CCNCC4)cn3)c21 [I-80, 7-[(5-piperazin-1-yl-2-pyridyl)amino]-4-(5,6,7,8-tetrahydro-imidazo[1,2-a]pyridin-3-yl)isoindolin-1-one]
11 | < 100 | Cn1ccc2c(-c3ncc(Nc4ccc(N5CCO[C@@H](C(C)(C)O)C5)cn4)c4c3CNC4=O)ccnc21 [I-459]
12 | 100 to 1000 | CN1CCN(c2ccc(Nc3ccc(-c4ccnc5c4ccn5Cc4ccccc4)c4c3C(=O)NC4)nc2)CC1 [I-257, 4-(1-benzyl-1H-pyrrolo[2,3-b]pyridin-4-yl)-7-((5-(4-methylpiperazin-1-yl)pyridin-2-yl)amino)isoin-dolin-1-one]
13 | < 100 | CN(C)Cc1nc(Nc2ccc(-c3cnc4cc(F)ccn34)c3c2C(=O)NC3)ccc1[C@]1(O)CCOC1 [I-803, (R)-7-((6-((dimethylamino)-methyl)-5-(3-hydroxytetra-hydrofuran-3-yl)pyridin-2-yl)amino)-4-(7-fluoroimidazo [1,2-a]pyridin-3-yl)isoindolin-1-one]
14 | < 100 | CN1CCN(c2cccc(Nc3ccc(-c4ccnc5c4ccn5C)c4c3C(=O)NC4)n2)CC1 [I-247, 7-[[6-(4-methylpiperazin-1-yl)-2-pyridyl]amino]-4-(1-methylpyrrolo [2,3-b]pyridin-4-yl)isoindolin-1-one]
15 | 100 to 1000 | CN1CCN(c2ccc(Nc3ccc(-c4cccc5nccn45)c4c3C(=O)NC4)nc2)CC1 [I-25, 4-imidazo[1,2-a]pyridin-5-yl-7-[[5-(4-methylpiperazin-1-yl)-2-pyridyl]amino] isoindolin-1-one]
16 | < 100 | Cc1ccn2c(-c3ccc(Nc4ccc(N5CCNCC5)cn4)c4c3CNC4=O)cnc2c1 [I-72, 4-(7-methylimidazo [1,2-a]pyridin-3-yl)-7-[(5-piperazin-1-yl-2-pyridyl)amino] isoindolin-1-one]
17 | < 100 | Cc1ccn2c(-c3ccc(Nc4ccc(N5CCO[C@H](C(C)(C)O)C5)cn4)c4c3CNC4=O)cnc2c1F [I-463, 4-(8-fluoro-7-methyl-imidazol [1,2-a]pyridin-3-yl)-7-[[5-[(2S)-2-(1-hydroxy-1-methyl-ethyl)morpholin-4-yl]-2-pyridyl]amino]isoindolin-1-one]

Row | IC50 [nM] | Compound
18 | 100 to 1000 | COc1cccc2c(-c3ncc(Nc4ccc(N5CCN(C)CC5)cn4)c4c3CNC4=O)c[nH]c12 [I-7, 4-(7-methoxy-1H-indol-3-yl-)-7-[[5-(4-methylpiperazin-1-yl)-2-pyridyl]amino]-2,3-dihydropyrrolo [3,4-c]pyridin-1-one]
19 | < 100 | O=C1NCc2c(-c3cnc4cc(F)ccn34)ccc(Nc3ccc([C@@H]4CCOC4)c(CN4CC[C@H](F)C4)n3)c21 (stereo in doubt) [I-736]
20 | < 100 | O=C1NCc2c(-c3cnc4cc(CO)ccn34)ccc(Nc3ccc(N4CCOCC4)cn3)c21 [I-196, 4-[7-(hydroxymeth-yl)imidazo[1,2-a]pyridin-3-yl]-7-[(5-morpholino-2-pyridyl)amino] isoindolin-1-one]
21 | < 100 | CC(C)(O)[C@@H]1CN(c2ccc(Nc3cnc(-c4cnc5ccccn45)c4c3C(=O)NC4)nc2)CCO1 [I-485, 7-[[5-[(2S)-2-(1-hydroxy-1-methyl-ethyl)morpholin-4-yl]-2-pyridyl]amino] 4-imidazo[1,2-a]pyridin-3-yl-2,3-dihydropyrrolo [3,4-c]pyridin-1-one]
22 | < 100 | CN(C)C[C@H]1CN(c2ccc(Nc3ccc(-c4cnc5cc(F)ccn45)c4c3C(=O)NC4)nc2)CCO1 [I-604, (S)-7-((5-(2-((dimethylamino)-methyl)mor pholino)pyridin-2-yl)amino)-4-(7-fluoroimidazo [1,2-a]pyridin-3-yl)isoindolin-1-one]
23 | > 1000 | O=C1NCc2c(-c3ccnc4ccnn34)ccc(Nc3ccc(N4CCNCC4)cn3)c21 [I-127, 7-[(5-piperazin-1-yl-2-pyridyl)amino]-4-pyrazolo[1,5-a]pyrimidin-7-yl-isoindolin-1-one]
24 | < 100 | O=C1NCc2c(-c3cnc4cc(Cl)ccn34)ccc(Nc3ccc(N4CCOCC(O)C4)cn3)c21 (stereo in doubt) [I-595, (S)-4-(7-chloroimidazo [1,2-a]pyridin-3-yl)-7-((5-(6-hydroxy-1.4-oxazepan-4-yl)pyridin-2-yl)amino)isoin-dolin-1-one]
25 | 100 to 1000 | Cn1ccc2c(-c3ncc(Nc4cccc(N5C[C@H](N6CCC6)CC5=O)n4)c4c3CNC4=O)ccnc21 [I-724, (R)-7-((6-(4-(azetidin-1-yl)-2-oxopyrrolidin-1-yl)pyridin-2-yl)amino)-4-(1-methyl-1H-pyrrolo[2,3-b]pyridin-4-yl)-2,3-dihydro-1H-pyrrolo[3,4-c]pyridin-1-one]
26 | < 100 | COC[C@@]1(O)CCCN(c2ccc(Nc3ccc(-c4cnc5cc(F)ccn45)c4c3C(=O)NC4)nc2)C1 [I-394, (R)-4-(7-fluoroimidazo [1,2-a]pyridin-3-yl)-7-((5-(3-hydroxy-3-(methoxymeth-yl)piperidin-1-yl)pyridin-2-yl)amino)isoin-dolin-1-one]
27 | < 100 | O=C1NCc2c(-c3cnc4cnccn34)ccc(Nc3ccc(N4CC5(COC5)C4)cn3)c21 [I-312, 7-((5-(2-oxa-6-azaspiro[3,3]heptan-6-yl)pyridin-2-yl)amino)-4-(imidazo[1,2-a]pyrazin-3-yl)isoindolin-1-one]
28 | < 100 | O=C1NCc2c(-c3cnc4ccccn34)ncc(Nc3ccc(N4CCNCC4)cn3)c21 [I-63, 4-imidazo[1,2-a]pyridin-3-yl-7-[(5-piperazin-1-yl-2-pyridyl)amino]-2,3-dihydropyrrolo [3,4-c]pyridin-1-one]
29 | < 100 | CNC1CCN(c2ccc(Nc3cnc(-c4ccnc5c4ccn5C)c4c3C(=O)NC4)nc2)CC1(F)F (stereo not shown) [I-453, 7-[[5-[3,3-difluoro-4-(methylamino)-1-piperidyl]-2-pyridyl]amino]-4-(1-methylpyrrolo [2,3-b]pyridin-4-yl)-2,3-dihydropyrrolo [3,4-c]pyridin-1-one]
30 | > 1000 | O=C1NCc2c(-c3ccnn4cccc34)ncc(Nc3ccc(N4CCC(O)CC4)cn3)c21 [I-588, 7-((5-(4-hydroxypiperidin-1-yl)pyridin-2-yl)amino)-4-(pyrrolo[1,2-b]pyridazin-4-yl)-2,3-dihydro-1H-pyrrolo[3,4-c]pyridin-1-one]
31 | < 100 | CN(C)CC1(F)CCCN(c2ccc(Nc3ccc(-c4cnc5cc(F)ccn45)c4c3C(=O)NC4)nc2)C1 (stereo not shown) [I-503]
32 | 100 to 1000 | CN1CCN(c2ccc(Nc3cnc(-c4cccc5[nH]ccc45)c4c3C(=O)NC4)nc2)CC1 [I-252, 4-(1H-indol-4-yl)-7-((5-(4-methylpiperazin-1-yl)pyridin-2-yl)amino)-2,3-dihydro-1H-pyrrolo[3,4-c]pyridin-1-one]
33 | < 100 | O=C1NCc2c(-c3cnc4cc(F)ccn34)ccc(Nc3ccc([C@@H]4CCOC4)c(CN4CCC[C@@H]4CO)n3)c21 [I-826, 4-(7-fluoroimidazo [1,2-a]pyridin-3-yl)-7-((6-(((R)-2-(hydroxymeth-yl)pyrrolidin-1-yl)methyl)-5-((S)-THF-3-yl)pyridin-2-yl)amino)isoin-dolin-1-one]

Row | Compound | IC50 [nM]
34 | (S)-7-((5-(4-hydroxypiperidin-1-yl)pyridin-2-yl)amino)-3-methyl-4-(1-methyl-1H-pyrrolo[2,3-b]pyridin-4-yl)isoindolin-1-one [I-286] | > 1000
